Test results published in PubChem BioAssay (NCI).
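Compound exposure: 48 hours, 5 concentrations, 96-well plates. At the TGI there is no net growth.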

Columns and labels:
Experiment in all cases: NCI tumour cell line growth inhibition, 48 h
[1] = tested on: KM20L2 colon
[2] = tested on: DMS 114 small cell lung
[3] = tested on: HOP-92 NSCLC
[4] = tested on: OVCAR-3 ovarian
[5] = tested on: SN12C renal
[6] = tested on: HCT-116 colon
[7] = tested on: HCC-2998 colon
[8] = tested on: SNB-78 CNS
[9] = tested on: K-562 leukemia
[10] = tested on: HOP-18 NSCLC
[11] = tested on: NCI-H460 lung
[12] = tested on: MALME-3M melanoma
[13] = tested on: SNB-75 CNS
[14] = tested on: TK-10 renal
[15] = tested on: NCI-H226 lung
[16] = tested on: NCI-H23 lung
[17] = tested on: U251 CNS
[18] = tested on: M19-MEL melanoma
[19] = tested on: SF-268 CNS
[20] = tested on: CCRF-CEM leukemia
[21] = tested on: KM12 colon
[22] = tested on: HCT-15 colon
[23] = tested on: SK-MEL-28 melanoma
[24] = tested on: ACHN renal
[25] = tested on: UO-31 renal
[26] = tested on: LXFL 529 NSCLC
[27] = tested on: SNB-19 CNS
[28] = tested on: HL-60(TB) leukemia
[29] = tested on: UACC-257 melanoma
[30] = tested on: DLD-1 colon
[31] = tested on: IGROV1 ovarian
[32] = tested on: SW-620 colon
[33] = tested on: OVCAR-8 ovarian
[34] = tested on: OVCAR-4 ovarian
[35] = tested on: M14 melanoma
[36] = tested on: SK-MEL-2 melanoma
[37] = tested on: NCI-H522 lung
[38] = tested on: LOX IMVI melanoma
[39] = tested on: SF-295 CNS
[40] = tested on: SK-OV-3 ovarian
[41] = tested on: RXF 393 renal
[42] = tested on: EKVX NSCLC
[43] = tested on: SR leukemia
[44] = tested on: SF-539 CNS
[45] = tested on: 786-0 renal
[46] = tested on: HT29 colon
[47] = tested on: RPMI-8226 leukemia
[48] = tested on: COLO 205 colon
[49] = tested on: UACC-62 melanoma
[50] = tested on: A549 NSCLC
[51] = tested on: HOP-62 NSCLC
[52] = tested on: DMS 273 small cell lung
[53] = tested on: MOLT-4 leukemia
[54] = tested on: OVCAR-5 ovarian
[55] = tested on: A498 renal
[56] = tested on: SK-MEL-5 melanoma
[57] = tested on: XF 498 CNS

Question: What does the source list for `CC(C)=CCC/C(C)=C/CC/C(C)=C/Cc1c(O)c2ccccc2oc1=O`?
Answer: TGI [1]: > 100 µM; TGI [2]: > 100 µM; TGI [3]: > 100 µM; TGI [4]: > 100 µM; TGI [5]: > 100 µM; TGI [6]: > 100 µM; TGI [7]: > 100 µM; TGI [8]: > 100 µM; TGI [9]: > 100 µM; TGI [10]: > 100 µM; TGI [11]: > 100 µM; TGI [12]: > 100 µM; TGI [13]: > 100 µM; TGI [14]: > 100 µM; TGI [15]: > 100 µM; TGI [16]: > 100 µM; TGI [17]: > 100 µM; TGI [18]: > 100 µM; TGI [19]: > 100 µM; TGI [20]: > 100 µM; TGI [21]: > 100 µM; TGI [22]: > 100 µM; TGI [23]: > 100 µM; TGI [24]: > 100 µM; TGI [25]: > 100 µM; TGI [26]: > 100 µM; TGI [27]: > 100 µM; TGI [28]: > 100 µM; TGI [29]: > 100 µM; TGI [30]: > 100 µM; TGI [31]: > 100 µM; TGI [32]: > 100 µM; TGI [33]: > 100 µM; TGI [34]: > 100 µM; TGI [35]: > 100 µM; TGI [36]: > 100 µM; TGI [37]: > 100 µM; TGI [38]: > 100 µM; TGI [39]: > 100 µM; TGI [40]: > 100 µM; TGI [41]: > 100 µM; TGI [42]: > 100 µM; TGI [43]: > 100 µM; TGI [44]: > 100 µM; TGI [45]: > 100 µM; TGI [46]: > 100 µM; TGI [47]: > 100 µM; TGI [48]: > 100 µM; TGI [49]: > 100 µM; TGI [50]: > 100 µM; TGI [51]: > 100 µM; TGI [52]: > 100 µM; TGI [53]: > 100 µM

Question: For `O=C(/C=C/c1ccccc1)CC1OC(=O)c2ccccc21` (stereo unspecified), which TGI [1] is on record?
Answer: The TGI was > 100 µM.

Question: And the TGI [2]?
Answer: Its TGI is > 100 µM.

Question: What about the TGI [54] of the same compound?
Answer: The TGI was > 100 µM.

Question: And the TGI [3]?
Answer: Its TGI is > 100 µM.

Question: What about the TGI [6] of the same compound?
Answer: The TGI was > 100 µM.

Question: And the TGI [7]?
Answer: Its TGI is > 100 µM.

Question: What about the TGI [55] of the same compound?
Answer: The TGI was > 100 µM.

Question: And the TGI [9]?
Answer: Its TGI is > 100 µM.

Question: And the TGI [10]?
Answer: Its TGI is 78.4 µM.

Question: What about the TGI [11] of the same compound?
Answer: Its TGI is > 100 µM.

Question: What about the TGI [12] of the same compound?
Answer: Its TGI is > 100 µM.

Question: And the TGI [13]?
Answer: Its TGI is > 100 µM.

Question: What about the TGI [14] of the same compound?
Answer: Its TGI is > 100 µM.

Question: What about the TGI [15] of the same compound?
Answer: The TGI was 83.1 µM.

Question: And the TGI [16]?
Answer: Its TGI is > 100 µM.

Question: And the TGI [17]?
Answer: Its TGI is > 100 µM.

Question: What about the TGI [18] of the same compound?
Answer: The TGI was > 100 µM.

Question: What about the TGI [19] of the same compound?
Answer: Its TGI is > 100 µM.

Question: And the TGI [20]?
Answer: The TGI was > 100 µM.

Question: And the TGI [21]?
Answer: Its TGI is > 100 µM.

Question: And the TGI [22]?
Answer: The TGI was > 100 µM.

Question: What about the TGI [23] of the same compound?
Answer: Its TGI is > 100 µM.

Question: What about the TGI [24] of the same compound?
Answer: The TGI was > 100 µM.

Question: What about the TGI [25] of the same compound?
Answer: Its TGI is > 100 µM.

Question: What about the TGI [26] of the same compound?
Answer: The TGI was > 100 µM.

Question: What about the TGI [27] of the same compound?
Answer: The TGI was > 100 µM.

Question: What about the TGI [28] of the same compound?
Answer: The TGI was > 100 µM.

Question: And the TGI [29]?
Answer: Its TGI is > 100 µM.

Question: What about the TGI [30] of the same compound?
Answer: Its TGI is > 100 µM.

Question: And the TGI [31]?
Answer: The TGI was > 100 µM.

Question: What about the TGI [32] of the same compound?
Answer: Its TGI is > 100 µM.

Question: What about the TGI [33] of the same compound?
Answer: Its TGI is > 100 µM.

Question: What about the TGI [34] of the same compound?
Answer: The TGI was > 100 µM.

Question: And the TGI [35]?
Answer: The TGI was > 100 µM.

Question: And the TGI [36]?
Answer: Its TGI is > 100 µM.

Question: And the TGI [37]?
Answer: The TGI was > 100 µM.

Question: And the TGI [38]?
Answer: Its TGI is > 100 µM.

Question: What about the TGI [39] of the same compound?
Answer: The TGI was > 100 µM.

Question: And the TGI [40]?
Answer: Its TGI is > 100 µM.

Question: What about the TGI [56] of the same compound?
Answer: Its TGI is > 100 µM.

Question: What about the TGI [41] of the same compound?
Answer: Its TGI is > 100 µM.

Question: And the TGI [42]?
Answer: The TGI was > 100 µM.

Question: And the TGI [44]?
Answer: Its TGI is > 100 µM.

Question: What about the TGI [57] of the same compound?
Answer: Its TGI is > 100 µM.

Question: What about the TGI [45] of the same compound?
Answer: The TGI was > 100 µM.

Question: What about the TGI [46] of the same compound?
Answer: Its TGI is > 100 µM.

Question: And the TGI [47]?
Answer: The TGI was 82.5 µM.

Question: What about the TGI [48] of the same compound?
Answer: Its TGI is > 100 µM.

Question: And the TGI [49]?
Answer: The TGI was 66.5 µM.

Question: And the TGI [50]?
Answer: Its TGI is > 100 µM.

Question: What about the TGI [51] of the same compound?
Answer: The TGI was > 100 µM.

Question: What about the TGI [52] of the same compound?
Answer: Its TGI is > 100 µM.

Question: And the TGI [53]?
Answer: Its TGI is > 100 µM.
